The values that follow come from ChEMBL document CHEMBL5053534, “Germacrane sesquiterpenes from leaves of Eupatorium chinense inhibit protein tyrosine phosphatase” (Bioorg Med Chem Lett, 2021).

Structures are written as SMILES.

The target of test [1] is T1, Tyrosine-protein phosphatase non-receptor type 2 (Homo sapiens, UniProt P17706).
T1 sequence (P17706 whole entry): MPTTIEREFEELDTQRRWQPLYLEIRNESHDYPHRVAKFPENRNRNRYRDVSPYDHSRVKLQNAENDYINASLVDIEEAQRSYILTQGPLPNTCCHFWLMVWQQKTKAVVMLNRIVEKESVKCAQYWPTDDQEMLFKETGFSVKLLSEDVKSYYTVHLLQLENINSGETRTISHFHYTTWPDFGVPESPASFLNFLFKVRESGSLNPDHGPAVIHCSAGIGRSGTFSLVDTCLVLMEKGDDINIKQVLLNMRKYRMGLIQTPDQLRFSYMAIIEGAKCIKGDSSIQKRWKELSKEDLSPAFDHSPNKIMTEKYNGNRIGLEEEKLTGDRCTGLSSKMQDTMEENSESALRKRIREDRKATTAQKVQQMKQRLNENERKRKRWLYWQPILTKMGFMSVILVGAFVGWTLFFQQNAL
As to the kind of experiment: Inhibition of human recombinant TCPTP using pNPP as substrate assessed as reduction in p-nitrophenol release incubated for 30 mins by absorbance based analysis.

For test [2], the target named is T2, Tyrosine-protein phosphatase non-receptor type 1 (Homo sapiens, UniProt P18031).
T2 sequence (P18031 whole entry): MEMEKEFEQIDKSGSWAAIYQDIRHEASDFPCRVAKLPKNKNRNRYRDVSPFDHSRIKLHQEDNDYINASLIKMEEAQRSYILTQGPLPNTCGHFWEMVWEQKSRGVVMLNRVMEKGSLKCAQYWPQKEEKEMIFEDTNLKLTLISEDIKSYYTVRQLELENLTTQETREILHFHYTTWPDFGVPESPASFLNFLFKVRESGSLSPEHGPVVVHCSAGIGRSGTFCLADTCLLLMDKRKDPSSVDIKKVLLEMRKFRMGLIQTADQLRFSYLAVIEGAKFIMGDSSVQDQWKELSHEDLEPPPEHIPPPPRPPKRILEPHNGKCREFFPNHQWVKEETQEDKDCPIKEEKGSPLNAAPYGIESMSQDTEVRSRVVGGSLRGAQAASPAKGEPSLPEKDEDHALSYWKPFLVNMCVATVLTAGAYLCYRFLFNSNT
As to the kind of experiment: Inhibition of human recombinant PTP1B using pNPP as substrate assessed as reduction in p-nitrophenol release incubated for 30 mins by absorbance based analysis.

As for `C=C1C(=O)O[C@@H]2/C=C(\C)[C@@H](O)C/C=C(\C)C[C@@H](OC(=O)/C(=C\C)COC(C)=O)[C@@H]12`, the results for the half-maximal inhibitory concentration (IC50) in test [1] and in test [2] were above 25 µM and 25 µM, respectively.
For the compound `C=C1C(=O)O[C@@H]2/C=C(\C)C[C@H](O)/C=C(\C)C[C@@H](OC(=O)/C(=C\C)CO)[C@@H]12`, the IC50 in test [1] is above 28 µM; in test [2], 28 µM.
With `C=C1C(=O)O[C@@H]2/C=C(\C)CC/C=C(\C)C[C@@H](OC(=O)/C(=C\COC(C)=O)CO)[C@@H]12`, the IC50 in test [1] and in test [2] was above 29 µM throughout.
Turning to `C=C1C(=O)O[C@@H]2/C=C(\C)CC/C=C(\C)C[C@@H](OC(=O)/C(=C\C)CO)[C@@H]12`, the 50% inhibitory concentration (IC50) in test [1] turned out to be 25 µM; in test [2], 11 µM.
For the compound `C=C1C(=O)O[C@@H]2/C=C(\C)CC/C=C(\C)C[C@@H](OC(=O)/C(=C/CO)CO)[C@@H]12`, the IC50 in test [1] and in test [2] was above 28 µM throughout.
For the compound `C=C1C(=O)O[C@@H]2/C=C(\C)CC/C=C(\CO)C[C@@H](OC(=O)/C(C)=C/C)[C@@H]12`, the IC50 in test [1] and in test [2] was above 25 µM throughout.
For `C=C1C(=O)O[C@@H]2/C=C(\C)CC/C=C(\C)C[C@@H](OC(=O)/C(=C/C)CO)[C@@H]12`, the IC50 in test [1] and in test [2] was above 29 µM each time.
In the case of `C=C1C(=O)O[C@@H]2/C=C(\C)CC/C=C(\C)C[C@@H](OC(=O)/C(=C/C)COC(C)=O)[C@@H]12`, the concentration for half-maximal inhibition (IC50) in test [1] and in test [2] was above 25 µM each time.
Turning to `C=C1C(=O)O[C@@H]2/C=C(\C)C[C@H](O)/C=C(\C)C[C@@H](OC(=O)/C(=C\C)COC(C)=O)[C@@H]12`, the IC50 in test [1] and in test [2] was above 25 µM throughout.
